{
  "source": "patent US20190298717A1",
  "about": "(BOARD OF REGENTS, THE UNIVERSITY OF TEXAS SYSTEM, priority 2016, published 2019)",
  "key": {"Nrf2 and HO-1": {"tested_on": "Nrf2 and HO-1", "description": "The inventors first measured the cell proliferation to evaluate the stress caused by expression of tau fibrils in aggregate-positive and negative cells (FIG. 6A). […] The inventors also measured the concentration of superoxide ions (O2-), a detrimental byproduct of oxidative phosphorylation, as an ROS representative. […] The inventors next measured expression of Nrf2 and HO-1 in the same cells (FIG. 6C). […] Aggregate-positive and -negative KD cells were treated with 200 μM H2O2 for 24 h. Cytotoxicity was measured as release of LDH.\nWestern Blot Analysis. Protein expression was determined by Western blot analysis. Equal amount of protein from each sample was run in Tris-glycine SDS PAGE gel, followed by transferring to PVDF membrane. After blocking the membrane with 5% milk for 1 hour at room temperature, the membrane was incubated further for 2 hours with antibodies specific for target proteins: Nrf2, pNrf2(S40) from Novus (Littleton, Colo.); Keap1, HO-1, NQO1, GCLc, GCLm and lamin B1 from Cell Signaling (Danvers, Mass.); GAPDH from Santa Cruz (Dallas, Tex.); β-Actin from Thermo Fisher (Waltham, Mass.). The membrane was subsequently incubated with species-specific HRP-conjugated secondary antibody followed by incubation with chemiluminescence substrate and imaging. The band intensity of each of the target proteins was quantified using ImageQuant software (GE Healthcare, Sweden). Western blot analysis on worm lystaes was done similarly. […] Equal amounts of protein were run on the gel and SKN-1 protein level was detected using anti-GFP antibody."}, "[1]": {"tested_on": "SKN-1/Nrf2-stress response pathway", "conditions": "in vivo", "protocol": "Treated and untreated populations, four biological replicates each, were then lysed, digested and analyzed by shotgun mass spectrometry for label-free quantification. […] An IPA analysis was performed using proteins with human orthologs.\nWorms were lysed in 8M urea, 5% 1 M Tris-HCl pH 8.0 and 1× protease inhibitor cocktail EDTA-free (Thermo Fisher, Waltham Mass.) buffer with the aid of sonication. Lysates were centrifuged at 14000 g for 15 min at 4° C. and proteins in the supernatant were precipitated using cold acetone. Disulfide bonds were reduced and alkylated (by DTT and IAA respectively) before diluting the solution to 1.8 M with 25 mM TRIS-HCL pH 8.0. Proteins were digested overnight at 37° C. with trypsin (Promega, Fitchburg Wis.) in presence of 1 mM CaCl2. Peptides were acidified with TFA and purified using Oasis HLB plates (Waters, UK). A Dionex Ultimate 3000 UHPLC (Thermo) was coupled to an Orbitrap Fusion Lumos mass spectrometer for the separation and analysis of tryptic peptides. […]\nLC-MS/MS raw data files were processed using the latest available MaxQuant software (v.1.5.3.30). […] The p-values for all the statistical analysis were calculated using a two-tailed student t-test as used for normally distributed data (we pre-processed intensities by binary logarithm)."}, "SH-SY5Y cells [2]": {"tested_on": "SH-SY5Y cells", "description": "(§1) Results are expressed as means±SD from three independent experiments. […] Cell lysates were then subjected to Western blot analysis.\n(§2) A cell titer glow luminescence assay was used to measure cell cytotoxicity. […] LC3, microtubule-associated protein 1 light chain 3, which is a homologue of Apg8p essential for autophagy in yeast, is processed posttranslationally into LC3-I in cytosol. LC3-I is then converted into LC3-II, which associates with autophagosome membranes. The ratio of LC3-II/LC3-I determines the status of the autophagy process."}, "LC3": {"tested_on": "LC3", "conditions": "0, 5, 10 μM, ± bafilomycin 20 nM, 4 hours", "description": "as §1, §2"}, "GSK3β and Tau": {"tested_on": "GSK3β and Tau", "assay": "p-GSK3β (S9) and p-Tau (S396) Western blot", "conditions": "10 μM, 24 hours", "protocol": "Densitometry values were normalized against actin. […] The levels of p-Tau and total Tau were measured by Western blot analysis. […] Densitometry values were normalized to actin using Image J software. All of the western blot quantification values (shown in the right panel) are mean±SD from two technical replicates (n=2).\nA known GSK3β inhibitor LiCl (lithium chloride) (10 mM) was used as a positive control [9]. After the treatment, cells were lysed and equal amounts of total lysate were resolved on SDS-PAGE for western blot analysis using phospho-GSK3β (S9) (phosphorylation at this residue reduces the GSK3β kinase activity) and pTau antibodies [12,13]. […] The inventors analyzed the level of Tau phosphorylation at S396 (FIG. 18C)."}, "[3]": {"tested_on": "NMNAT-1, SIRT1, SIRT5 and COX-IV", "description": "Data were normalized to actin. […] The intensity of the bands was normalized to actin. Data are mean±SEM of triplicate measurements."}, "SH-SY5Y cells [4]": {"tested_on": "SH-SY5Y cells", "conditions": "72 hours", "description": "Mitochondrial mass was measured by staining the cells with Mito tracker deep red followed by flow cytometric analysis. […] DNA copy number of mitochondria was calculated by amplification of ND5 or m-RNR, as mitochondrial genes, relative to LPL as a nucleus specific DNA sequence. Relative expression values were normalized to untreated cells.\nSeveral parameters directly linked to intact mitochondria itself, namely mitochondrial mass, mtDNA copy number (as representatives of mitochondrial biogenesis), mitochondrial membrane potential (reporter of mitochondrial function) and ATP level as a signature of energetics (FIGS. 11A to 11E) were measured. […] Isoniazid (20 μM) and resveratrol (20 μM) were used as negative and positive controls respectively). Mitochondrial mass was also evaluated in parallel by measuring the relative amount of mitochondrial to nuclear DNA. Two different set of primers (ND5 and m-RNR) were used to amplify mt-DNA in qPCR reactions (FIG. 11B).\nThe mitochondrial membrane potential was measured as an indicator of cellular energetics and ATP content."}, "C. elegans": {"tested_on": "C. elegans", "description": "C. elegans strains and maintenance. Animals were grown and maintained using standard C. elegans conditions at 20° C. on NGM plates and were fed E. coli strain HB101. N2 worms were used as wild-type and the following mutants and transgenic strains were used from Caenorhabditis Genetics Center (CGC, University of Minnesota): EU1 skn-1(zu67) (IV)/nT1[unc-?(n754); let-?], EU31 skn-1(zu135))/nT1[unc-?(n754); let-?], CL2166 dvIs19 [gst-4p::GFP::NLS], CL691 dvIs19 [gst-4p::GFP::NLS], skn-1(zu67)/nT [unc-?(n754) let-?], LG333 skn-1(zu135)/nT1[qIs51]; ldIs7[skn-1b/c::GFP], LG348 skn-1(zu135)/nT1[qIs51]; geIs9 [gpa-4p::skn-1b::GFP+rol-6(su1006)], LG357 skn-1(zu135)/nT1[qIs51]; geIs10 [ges-1p(long)::skn-1c::GFP+rol-6(su1006)], and LD1 ldIs7 [skn-1b/c::GFP+rol-6(su1006)].\nLifespan analysis. All lifespan assays were performed at 20° C. according to standard protocols described elsewhere. […] Worms were transferred to fresh plates every day after reaching adulthood, and every two days after reaching 10 days of age. Prodding test as described above was used to count the number of dead worms. Survival curve was plotted using Prism 7 and the significance of the curves calculated by Log-rank (Mantel-Cox) test.\nRNA Interference. Synchronized L1 larvae were placed on NGM plates containing 1 mM IPTG and fed HT115 bacterial strain containing scramble or skn-1 RNAi plasmids. All the experiments were done at 20° C."}, "SH-SY5Y cells [5]": {"tested_on": "SH-SY5Y cells", "conditions": "Aβ (1-42) 20 μM, 24 hour; 46% with Aβ alone", "description": "Densitometry values were normalized against actin.\nAfter 24 hour treatment, cell viability was measured using the cell titer glow luminescence assay."}, "[6]": {"conditions": "tau aggregate cells treated with 0, 10, 20 μM (FIG. 6C), comparator not stated"}},
  "note": "Read-outs that look alike come from different tables or passages of the source.",
  "data": [
    {"compound": "NNc1nncc2ccccc12", "note": "[Hydralazine]", "values": [
      {"measurement": "Nrf2 expression with hydralazine and rotenone compared to rotenone only", "setting": "Nrf2 and HO-1; aggregate-positive cells, 20 μM, 1 μM rotenone, 24 h", "result": "higher"},
      {"measurement": "HO-1 expression increase", "setting": "Nrf2 and HO-1; [6]", "result": "~25", "unit": "%"},
      {"measurement": "Nrf2 expression, higher", "setting": "Nrf2 and HO-1; [6]", "result": 1.5, "unit": "fold"},
      {"measurement": "SKN-1/Nrf2-stress response pathway activation, IPA Z score", "setting": "[1]", "result": 3.317},
      {"measurement": "protection against oxidative stress under proteasomal inhibition by MG132", "setting": "SH-SY5Y cells [2]; MG132 10 μM, H2O2 100 μM, 4 hours", "result": "does not have an impact"},
      {"measurement": "protection against oxidative stress under autophagy inhibition with bafilomycin", "setting": "SH-SY5Y cells [2]; bafilomycin 20 nM, H2O2 100 μM, 4 hours", "result": "significantly reduces the ability of hydralazine to protect cells"},
      {"measurement": "concentration at which no toxicity was observed", "setting": "SH-SY5Y cells [2]; human, 48 h", "result": "up to 25 μM"},
      {"measurement": "concentration with significant decrease in cell viability compared to control", "setting": "SH-SY5Y cells [2]; human, 48 h", "result": "≥ 50", "unit": "µM"},
      {"measurement": "ratio of LC3-II/LC3-I", "setting": "LC3", "result": "increase in the ratio of LC3-II/LC3-I"},
      {"measurement": "Tau phosphorylation at S396, compared to positive control LiCl", "setting": "GSK3β and Tau", "result": "reduces the hyper-phosphorylation of Tau even more"},
      {"measurement": "transcription level of NMNAT-1, SIRT1, SIRT5 (qRT-PCR)", "setting": "[3]; 20 μM, 12 hours", "result": "increased the transcription level"},
      {"measurement": "NMNAT-1, SIRT1, SIRT5 protein (Western blot)", "setting": "[3]; 10 and 20 μM", "result": "up-regulated at the protein level"},
      {"measurement": "level of COX-IV", "setting": "[3]; after 48 hours", "result": "significant increase"},
      {"measurement": "mitochondrial mass", "setting": "SH-SY5Y cells [4]; 0, 10, 20 μM", "result": "sharp increase in mitochondrial mass"},
      {"measurement": "increase in mt-DNA copy number", "setting": "SH-SY5Y cells [4]; 20 μM", "result": "more than 50%"},
      {"measurement": "Variation Compared to Control (%)", "setting": "C. elegans; EU1 skn-1(zu67), 100 μM Hyd (printed 100 IJM), FIG. 7G", "result": "+11.7%"},
      {"measurement": "Variation Compared to Control (%)", "setting": "C. elegans; EU31 skn-1(zu135), 100 μM Hyd (printed 100 IlM), FIG. 7G", "result": "+3.3%"},
      {"measurement": "Variation Compared to Control (%)", "setting": "C. elegans; LG348 (geIs9, skn-1b), 100 μM Hyd (printed 100 IJM), FIG. 7H", "result": "+10.8%"},
      {"measurement": "Variation Compared to Control (%)", "setting": "C. elegans; LG357 (geIs10, skn-1c), 100 μM Hyd (printed 100 FM), FIG. 7H", "result": "+2.7%"},
      {"measurement": "Variation Compared to Control (%)", "setting": "C. elegans; N2, 10 μM Hyd (printed 10 IJM), FIG. 7E", "result": "+4.82%"},
      {"measurement": "lifespan extension", "setting": "C. elegans; N2, 100 μM", "result": "≤ 25", "unit": "%"},
      {"measurement": "Variation Compared to Control (%)", "setting": "C. elegans; N2, 100 μM Hyd (printed 100IJM), FIG. 7E", "result": "+24.4%"},
      {"measurement": "Variation Compared to Control (%)", "setting": "C. elegans; N2, 200 μM Hyd (printed 200 IlM), FIG. 7E", "result": "+13.3%"},
      {"measurement": "Variation Compared to Control (%)", "setting": "C. elegans; N2-Scramble RNAi, 100 μM (printed 100 IJM), FIG. 7F", "result": "+22.2%"},
      {"measurement": "Variation Compared to Control (%)", "setting": "C. elegans; N2-skn-1 RNAi, 100 μM, FIG. 7F", "result": "−5.4", "unit": "%"},
      {"measurement": "pro-longevity effect in skn-1(zu135) mutant and skn-1 knockdown worms", "setting": "C. elegans; in vivo", "result": "completely lost"},
      {"measurement": "extension of medium and maximum lifespan", "setting": "C. elegans; worms treated with hydralazine", "result": "at least 25%"},
      {"measurement": "cells surviving Aβ (1-42) peptide treatment", "setting": "SH-SY5Y cells [5]", "result": "70-80%"}
    ]}
  ]
}
